Measurements from PMC4452343, “Monitoring β-arrestin recruitment via β-lactamase enzyme fragment complementation: purification of peptide E as a low-affinity ligand for mammalian bombesin receptors” (PLoS ONE, 2015).

Columns and labels:
[1] = test system: hOX1R; test: ß-lactamase EFC assay of ß-arrestin recruitment, OX1R reporter cells; type: cell-based, human; details: 14 h ligand incubation, CCF4/AM substrate
Protocol: CHO cells stably expressing both the GPCR-omega chimera and ß-arrestin 2-alpha chimera were plated either in 6 well plates or in 96 well plates. After 24 h, ligands or HPLC fractions were added to the wells, and incubated for 14 h. After incubation, cells were washed once in HBSS and then incubated with CCF4/AM substrate for 2 h. ß-lactamase activity was measured either by FACS or with a plate reader (Victor V: Perkin Elmer).

[2] = molecular target: T1, hNMBR (Homo sapiens, UniProt P28336); test: NFAT-luciferase reporter assay in CHO cells expressing hNMBR; type: cell-based; details: 6 h incubation, read-out: EC50, activation of NFAT-promotor
T1 construct: expressed in transfected cells; host or cells: CHO cells stably expressing hNMBR
Protocol: CHO cells stably expressing the GPCR of interest were transiently transfected with NFAT-TA-Luc plasmid (Clontech). Cells were then left overnight before being plated in 96 well plates (20000 cells/well). After an additional 24 h, the synthetic ligands were added to the wells and incubated for 6 h. Following incubation, firefly luciferase assays were performed using the Steady-Glo Luciferase Assay System (Promega). Luminescence was detected with a plate reader (Victor V: Perkin Elmer), according to the manufacturer’s instructions. EC50 values were calculated using Workout 2.0 Data Analysis Software (Perkin Elmer).

T1 sequence (P28336 whole entry): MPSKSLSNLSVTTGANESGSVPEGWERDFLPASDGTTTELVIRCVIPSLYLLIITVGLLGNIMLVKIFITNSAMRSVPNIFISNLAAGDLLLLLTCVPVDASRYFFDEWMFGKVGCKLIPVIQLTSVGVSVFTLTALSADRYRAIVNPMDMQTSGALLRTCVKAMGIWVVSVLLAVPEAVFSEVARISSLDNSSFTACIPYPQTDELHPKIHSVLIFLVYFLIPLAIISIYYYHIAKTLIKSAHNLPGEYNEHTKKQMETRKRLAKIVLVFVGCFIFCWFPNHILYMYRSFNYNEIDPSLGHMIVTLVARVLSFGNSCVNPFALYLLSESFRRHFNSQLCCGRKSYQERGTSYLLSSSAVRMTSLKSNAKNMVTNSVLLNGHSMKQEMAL

Row | Compound | Response in ß-lactamase EFC assay (ß-arrestin recruitment to OX1R) [1] | EC50 [2] [nM]
1 | orexin-A (QPLPDCCRQKTCSCRLYELLHGAGNHAAGILTL) [unrelated peptide; ligand of orexin type 1 receptor, used as control] | responded specifically to orexin-A | 
2 | CSCC[C@H](NC(=O)[C@H](Cc1ccccc1)NC(=O)[C@H](Cc1cnc[nH]1)NC(=O)CNC(=O)[C@@H](NC(=O)[C@H](C)NC(=O)[C@H](Cc1c[nH]c2ccccc12)NC(=O)[C@H](CC(C)C)NC(=O)[C@H](CC(N)=O)NC(=O)CN)[C@@H](C)O)C(N)=O [NMB, neuromedin B] |  | 0.16
